pIC50: −log10 of the molar value.
How the values were obtained:
Assay type in all cases: biochemical
c-Mer = c-Mer (Homo sapiens (Human), UniProt Q12866); assay: TAM Enzymatic Assay (HTRF), Mer; settings: 60 min, room temperature
Protocol: (§1) The kinase assay buffer contained 50 mM HEPES, pH7.5, 10 mM MgCl2, 1 mM EGTA, 0.01% NP-40 and 2 mM DTT. 0.1 ul test compounds dissolved in DMSO were transferred from compound plates to white 384-well assay plates (Greiner […] plates). […] 4 ul enzyme solution (or assay buffer for the enzyme blank) was added to the appropriate wells in each plate, and then 4 ul/well substrate solution was added to initiate the reaction. The plate was protected from light and incubated at room temperature for 60 min. […] The plate was incubated for 1 h at room temperature, and HTRF (homogenous time resolved fluorescence) signal was measured on a PHERAstar FS plate reader (BMG labtech). Percentage of inhibition was calculated for each concentration and IC50 value was generated from curve fitting with GraphPad Prism software.

phosphor-Axl = phosphor-Axl (Homo sapiens (Human), UniProt P30530); assay: TAM Enzymatic Assay (HTRF), Axl; settings: recombinant autophosphorylated Axl, 60 min, room temperature
Protocol: Autophosphorylation of Axl was carried out by incubating the recombinant Axl protein (Life Technologies, PV4275) in buffer containing 50 mM Tris, pH7.5, 0.2 mg/ml Axl, 5 mM ATP, 20 mM MgCl2 and 2 mM DTT at room temperature for 1 hour.
as §1

Tyro3 = Tyro3 (Homo sapiens (Human), UniProt Q06418); assay: TAM Enzymatic Assay (HTRF), Tyro3; settings: Tyro3, 60 min, room temperature
Outline: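 HTRF kinase assay in 50 mM HEPES pH 7.5, 10 mM MgCl2, 1 mM EGTA, 0.01% NP-40, 2 mM DTT; compound in DMSO pre-dispensed, enzyme added, reaction started with substrate, 60 min at room temperature in the dark.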

c-Mer, sequence (Q12866 21-999): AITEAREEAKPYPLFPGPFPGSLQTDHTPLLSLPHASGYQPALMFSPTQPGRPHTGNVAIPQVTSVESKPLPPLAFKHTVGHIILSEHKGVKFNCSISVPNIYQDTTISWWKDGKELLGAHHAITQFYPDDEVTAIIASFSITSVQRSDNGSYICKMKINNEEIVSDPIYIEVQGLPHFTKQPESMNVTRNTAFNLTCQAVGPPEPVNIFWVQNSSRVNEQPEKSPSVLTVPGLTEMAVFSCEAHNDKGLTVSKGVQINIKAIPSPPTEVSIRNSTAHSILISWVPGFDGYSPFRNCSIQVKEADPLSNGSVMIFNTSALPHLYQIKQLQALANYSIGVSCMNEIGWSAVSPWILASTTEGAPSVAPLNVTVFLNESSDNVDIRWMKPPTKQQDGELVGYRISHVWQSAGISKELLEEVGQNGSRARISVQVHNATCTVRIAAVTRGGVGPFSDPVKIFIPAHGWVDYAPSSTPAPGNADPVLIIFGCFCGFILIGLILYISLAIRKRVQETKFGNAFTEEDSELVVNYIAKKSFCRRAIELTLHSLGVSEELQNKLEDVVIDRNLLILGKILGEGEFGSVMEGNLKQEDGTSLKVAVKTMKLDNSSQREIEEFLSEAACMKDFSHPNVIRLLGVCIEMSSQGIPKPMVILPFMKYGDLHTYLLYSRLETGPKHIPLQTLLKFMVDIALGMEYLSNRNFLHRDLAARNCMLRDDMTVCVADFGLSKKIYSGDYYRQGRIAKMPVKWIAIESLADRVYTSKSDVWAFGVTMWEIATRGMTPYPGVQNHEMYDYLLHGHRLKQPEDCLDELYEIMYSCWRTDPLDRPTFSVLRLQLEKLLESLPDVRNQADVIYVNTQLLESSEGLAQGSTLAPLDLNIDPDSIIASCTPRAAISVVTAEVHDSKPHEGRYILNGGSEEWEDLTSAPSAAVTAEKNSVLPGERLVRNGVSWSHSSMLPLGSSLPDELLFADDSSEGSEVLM
Tyro3, sequence (Q06418 41-890): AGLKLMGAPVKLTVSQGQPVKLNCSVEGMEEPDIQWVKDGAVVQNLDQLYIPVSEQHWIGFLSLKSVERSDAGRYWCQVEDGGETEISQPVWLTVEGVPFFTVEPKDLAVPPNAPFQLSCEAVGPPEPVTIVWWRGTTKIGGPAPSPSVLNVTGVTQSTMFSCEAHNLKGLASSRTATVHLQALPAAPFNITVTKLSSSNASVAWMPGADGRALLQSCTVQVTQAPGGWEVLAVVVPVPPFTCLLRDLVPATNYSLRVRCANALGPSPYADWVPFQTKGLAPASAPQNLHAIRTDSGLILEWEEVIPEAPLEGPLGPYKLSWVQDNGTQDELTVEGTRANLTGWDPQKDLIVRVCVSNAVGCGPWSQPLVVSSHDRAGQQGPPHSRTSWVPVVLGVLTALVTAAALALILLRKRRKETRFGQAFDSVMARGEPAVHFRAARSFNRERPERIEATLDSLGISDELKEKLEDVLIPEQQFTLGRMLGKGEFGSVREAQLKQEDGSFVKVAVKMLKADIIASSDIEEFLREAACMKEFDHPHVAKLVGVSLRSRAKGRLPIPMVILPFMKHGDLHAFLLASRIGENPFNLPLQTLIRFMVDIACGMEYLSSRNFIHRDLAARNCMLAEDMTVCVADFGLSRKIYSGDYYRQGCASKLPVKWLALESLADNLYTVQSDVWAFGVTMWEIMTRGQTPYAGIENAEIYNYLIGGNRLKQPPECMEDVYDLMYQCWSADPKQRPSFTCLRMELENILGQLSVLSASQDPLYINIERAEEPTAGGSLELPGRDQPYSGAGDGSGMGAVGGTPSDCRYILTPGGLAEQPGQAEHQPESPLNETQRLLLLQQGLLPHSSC
phosphor-Axl, sequence (P30530 26-894): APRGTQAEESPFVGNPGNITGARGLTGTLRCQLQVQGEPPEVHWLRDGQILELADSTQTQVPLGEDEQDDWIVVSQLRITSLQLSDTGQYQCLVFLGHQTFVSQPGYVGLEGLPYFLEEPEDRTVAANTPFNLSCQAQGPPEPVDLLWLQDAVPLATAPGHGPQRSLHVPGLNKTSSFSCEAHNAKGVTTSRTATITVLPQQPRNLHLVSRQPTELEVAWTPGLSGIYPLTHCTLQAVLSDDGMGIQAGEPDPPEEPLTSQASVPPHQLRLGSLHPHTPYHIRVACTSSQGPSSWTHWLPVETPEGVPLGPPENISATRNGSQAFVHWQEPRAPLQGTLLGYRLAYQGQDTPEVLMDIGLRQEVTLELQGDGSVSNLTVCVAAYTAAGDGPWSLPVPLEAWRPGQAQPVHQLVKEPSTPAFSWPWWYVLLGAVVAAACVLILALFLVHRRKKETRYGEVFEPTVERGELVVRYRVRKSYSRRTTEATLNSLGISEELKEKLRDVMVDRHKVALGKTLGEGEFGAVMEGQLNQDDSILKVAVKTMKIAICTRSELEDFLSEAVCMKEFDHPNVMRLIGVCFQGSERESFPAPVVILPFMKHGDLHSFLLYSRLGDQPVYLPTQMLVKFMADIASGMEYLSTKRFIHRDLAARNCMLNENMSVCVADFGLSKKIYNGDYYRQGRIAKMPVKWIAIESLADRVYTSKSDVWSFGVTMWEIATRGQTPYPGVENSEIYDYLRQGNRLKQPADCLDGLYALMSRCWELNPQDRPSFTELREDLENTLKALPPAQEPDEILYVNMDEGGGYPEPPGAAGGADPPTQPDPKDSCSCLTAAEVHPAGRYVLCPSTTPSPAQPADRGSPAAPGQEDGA

| SMILES | pIC50 (c-Mer) | pIC50 (phosphor-Axl) | pIC50 (Tyro3) |
| --- | --- | --- | --- |
| Nc1ncnn2c1c(-c1ccc(NC(=O)c3cccn(-c4ccccc4)c3=O)cc1)cc2[C@H]1CC[C@@H](O)CC1 [7 (cis isomer), N-{4-[4-Amino-7-(cis-4-hydroxycyclohexyl)pyrrolo[2,1-f][1,2,4]triazin-5-yl]phenyl}-2-oxo-1-phenyl-1,2-dihydropyridine-3-carboxamide] | ≥ 8.30 | – | – |
| Nc1ncnn2c1c(-c1ccc(NC(=O)c3cccn(-c4ccccc4)c3=O)cc1)cc2[C@H]1CC[C@H](O)CC1 [7 (trans isomer), N-{4-[4-Amino-7-(trans-4-hydroxycyclohexyl)pyrrolo[2,1-f][1,2,4]triazin-5-yl]phenyl}-2-oxo-1-phenyl-1,2-dihydropyridine-3-carboxamide] | ≥ 8.30 | – | – |
| CCc1cc(-c2ccc(NC(=O)c3cccn([C@H](C)CO)c3=O)cc2)c2c(N)ncnn12 [Example 3, N-[4-(4-Amino-7-ethylpyrrolo[2,1-f][1,2,4]triazin-5-yl)phenyl]-1-[(1R)-2-hydroxy-1-methylethyl]-2-oxo-1,2-dihydropyridine-3-carboxamide] | < 7.00 | < 7.00 | < 7.00 |
| CCc1cc(-c2ccc(NC(=O)c3cccn([C@H](CC)CO)c3=O)cc2)c2c(N)ncnn12 [Example 4, N-[4-(4-Amino-7-ethylpyrrolo[2,1-f][1,2,4]triazin-5-yl)phenyl]-1-[(1R)-1-(hydroxymethyl)propyl]-2-oxo-1,2-dihydropyridine-3-carboxamide] | < 7.00 | < 7.00 | < 7.00 |
| CCc1cc(-c2ccc(NC(=O)c3cccn(Cc4ccccc4)c3=O)cc2)c2c(N)ncnn12 [Example 5, N-[4-(4-Amino-7-ethylpyrrolo[2,1-f][1,2,4]triazin-5-yl)phenyl]-1-benzyl-2-oxo-1,2-dihydropyridine-3-carboxamide] | < 7.00 | < 7.00 | < 7.00 |
| CCc1cc(-c2ccc(NC(=O)c3cccn(-c4ccccc4)c3=O)cc2F)c2c(N)ncnn12 [Example 12, N-[4-(4-Amino-7-ethylpyrrolo[2,1-f][1,2,4]triazin-5-yl)-3-fluorophenyl]-2-oxo-1-phenyl-1,2-dihydropyridine-3-carboxamide] | ≥ 8.30 | – | < 7.00 |
| Nc1ncnn2c(C3CCOCC3)cc(-c3ccc(NC(=O)c4cccn(-c5ccc(F)cc5)c4=O)cc3)c12 [Example 14, N-{4-[4-Amino-7-(tetrahydro-2H-pyran-4-yl)pyrrolo[2,1-f][1,2,4]triazin-5-yl]phenyl}-1-(4-fluorophenyl)-2-oxo-1,2-dihydropyridine-3-carboxamide] | ≥ 8.30 | ≥ 8.30 | 7.00 to 8.00 |
| Nc1ncnn2c(C3CCOCC3)cc(-c3ccc(NC(=O)c4cccn(-c5ccccc5)c4=O)cc3F)c12 [Example 15, N-{4-[4-Amino-7-(tetrahydro-2H-pyran-4-yl)pyrrolo[2,1-f][1,2,4]triazin-5-yl]-3-fluorophenyl}-2-oxo-1-phenyl-1,2-dihydropyridine-3-carboxamide] | ≥ 8.30 | ≥ 8.30 | – |
| Nc1ncnn2c(C3CCOCC3)cc(-c3ccc(NC(=O)c4cccn(-c5ccc(F)cc5)c4=O)cc3F)c12 [Example 16, N-{4-[4-Amino-7-(tetrahydro-2H-pyran-4-yl)pyrrolo[2,1-f][1,2,4]triazin-5-yl]-3-fluorophenyl}-1-(4-fluorophenyl)-2-oxo-1,2-dihydropyridine-3-carboxamide] | ≥ 8.30 | ≥ 8.30 | 7.00 to 8.00 |
| Nc1ncnn2c1c(-c1ccc(NC(=O)c3cccn(-c4ccc(F)cc4)c3=O)cc1)cc2[C@H]1CC[C@@H](O)CC1 [Example 17, N-{4-[4-Amino-7-(cis-4-hydroxycyclohexyl)pyrrolo[2,1-f][1,2,4]triazin-5-yl]phenyl}-1-(4-fluorophenyl)-2-oxo-1,2-dihydropyridine-3-carboxamide] | ≥ 8.30 | ≥ 8.30 | – |
| Nc1ncnn2c1c(-c1ccc(NC(=O)c3cccn(-c4ccccc4)c3=O)cc1F)cc2[C@H]1CC[C@@H](O)CC1 [Example 18, N-{4-[4-Amino-7-(cis-4-hydroxycyclohexyl)pyrrolo[2,1-f][1,2,4]triazin-5-yl]-3-fluorophenyl}-2-oxo-1-phenyl-1,2-dihydropyridine-3-carboxamide] | ≥ 8.30 | ≥ 8.30 | – |
| Nc1ncnn2c1c(-c1ccc(NC(=O)c3cccn(-c4ccc(F)cc4)c3=O)cc1F)cc2[C@H]1CC[C@@H](O)CC1 [Example 19, N-{4-[4-Amino-7-(cis-4-hydroxycyclohexyl)pyrrolo[2,1-f][1,2,4]triazin-5-yl]-3-fluorophenyl}-1-(4-fluorophenyl)-2-oxo-1,2-dihydropyridine-3-carboxamide] | ≥ 8.30 | ≥ 8.30 | ≥ 8.30 |
| CN1CCC(c2cc(-c3ccc(NC(=O)c4cccn(-c5ccc(F)cc5)c4=O)cc3)c3c(N)ncnn23)CC1 [Example 21, N-{4-[4-Amino-7-(1-methylpiperidin-4-yl)pyrrolo[2,1-f][1,2,4]triazin-5-yl]phenyl}-1-(4-fluorophenyl)-2-oxo-1,2-dihydropyridine-3-carboxamide] | ≥ 8.30 | – | – |
| CN1CCC(c2cc(-c3ccc(NC(=O)c4cccn(-c5ccccc5)c4=O)cc3F)c3c(N)ncnn23)CC1 [Example 22, N-{4-[4-Amino-7-(1-methylpiperidin-4-yl)pyrrolo[2,1-f][1,2,4]triazin-5-yl]-3-fluorophenyl}-2-oxo-1-phenyl-1,2-dihydropyridine-3-carboxamide] | ≥ 8.30 | ≥ 8.30 | 7.00 to 8.00 |
| CN1CCC(c2cc(-c3ccc(NC(=O)c4cccn(-c5ccc(F)cc5)c4=O)cc3F)c3c(N)ncnn23)CC1 [Example 23, N-{4-[4-Amino-7-(1-methylpiperidin-4-yl)pyrrolo[2,1-f][1,2,4]triazin-5-yl]-3-fluorophenyl}-1-(4-fluorophenyl)-2-oxo-1,2-dihydropyridine-3-carboxamide] | ≥ 8.30 | ≥ 8.30 | 7.00 to 8.00 |
| CC(=O)N1CCC(c2cc(-c3ccc(NC(=O)c4cccn(-c5ccccc5)c4=O)cc3)c3c(N)ncnn23)CC1 [Example 24, N-{4-[7-(1-Acetylpiperidin-4-yl)-4-aminopyrrolo[2,1-f][1,2,4]triazin-5-yl]phenyl}-2-oxo-1-phenyl-1,2-dihydropyridine-3-carboxamide] | ≥ 8.30 | ≥ 8.30 | 7.00 to 8.00 |
| CC(=O)N1CCC(c2cc(-c3ccc(NC(=O)c4cccn(-c5ccc(F)cc5)c4=O)cc3)c3c(N)ncnn23)CC1 [Example 25, N-{4-[7-(1-Acetylpiperidin-4-yl)-4-aminopyrrolo[2,1-f][1,2,4]triazin-5-yl]phenyl}-1-(4-fluorophenyl)-2-oxo-1,2-dihydropyridine-3-carboxamide] | ≥ 8.30 | ≥ 8.30 | 7.00 to 8.00 |
| Nc1ncnn2c(C3CCN(CCO)CC3)cc(-c3ccc(NC(=O)c4cccn(-c5ccc(F)cc5)c4=O)cc3)c12 [Example 53, N-(4-{4-Amino-7-[1-(2-hydroxyethyl)piperidin-4-yl]pyrrolo[2,1-f][1,2,4]triazin-5-yl}phenyl)-1-(4-fluorophenyl)-2-oxo-1,2-dihydropyridine-3-carboxamide] | ≥ 8.30 | – | – |
| CC(C)C(=O)N1CCC(c2cc(-c3ccc(NC(=O)c4ccc(-c5ccccn5)n(-c5ccccc5)c4=O)cc3)c3c(N)ncnn23)CC1 [Example 104, N-(4-(4-Amino-7-(1-isobutyrylpiperidin-4-yl)pyrrolo[2,1-f][1,2,4]triazin-5-yl)phenyl)-6-oxo-1-phenyl-1,6-dihydro-[2,2′-bipyridine]-5-carboxamide] | ≥ 8.30 | ≥ 8.30 | – |
| CC(C)C(=O)N1CCC(c2cc(-c3ccc(NC(=O)c4cn(C5CC5)c(=O)n(-c5ccccn5)c4=O)cc3)c3c(N)ncnn23)CC1 [Example 144, N-(4-(4-Amino-7-(1-isobutyrylpiperidin-4-yl)pyrrolo[1,2-f][1,2,4]triazin-5-yl)phenyl)-1-cyclopropyl-2,4-dioxo-3-(pyridin-2-yl)-1,2,3,4-tetrahydropyrimidine-5-carboxamide] | – | ≥ 8.30 | < 7.00 |
| Cc1cc(-n2c(=O)c(C(=O)Nc3ccc(-c4cc(C5CCN(C(=O)C(C)C)CC5)n5ncnc(N)c45)cc3)cn(C(C)C)c2=O)nn1C [Example 148, N-(4-(4-Amino-7-(1-isobutyrylpiperidin-4-yl)pyrrolo[1,2-f][1,2,4]triazin-5-yl)phenyl)-3-(1,5-dimethyl-1H-pyrazol-3-yl)-1-isopropyl-2,4-dioxo-1,2,3,4-tetrahydropyrimidine-5-carboxamide] | – | ≥ 8.30 | < 7.00 |
| Cc1cccc(-n2c(=O)c(C(=O)Nc3ccc(-c4cc(C5CCN(C(=O)C(C)C)CC5)n5ncnc(N)c45)cc3)cn(C(C)C)c2=O)n1 [Example 149, N-(4-(4-Amino-7-(1-isobutyrylpiperidin-4-yl)pyrrolo[1,2-f][1,2,4]triazin-5-yl)phenyl)-1-isopropyl-3-(6-methylpyridin-2-yl)-2,4-dioxo-1,2,3,4-tetrahydropyrimidine-5-carboxamide] | – | ≥ 8.30 | < 7.00 |

Reference: US9981975B2, “Pyrrolotriazine compounds as tam inhibitors” (Incyte Corporation, priority 2016, dated 2018)
